Source: patent US8846019B2, “Use of protoberberines as an active substance regulating the pilosebaceous unit” (Sederma, priority 2005, dated 2014)
Read-outs that look alike come from different tables or passages of the source. Marks after values point to notes of the source that are not given here.

What was measured:
Format in all cases: cell-based
[1] = tested on: Normal human keratinocytes (KHN); assay: Antiproliferative effect: BrdU incorporation by human keratinocytes (ELISA); conditions: for % incorporation of BrdU/control: 48 hours, 10% FCS; for effect on proliferation of keratinocytes (in words): dose-dependent mitotic decrease
Experimental: This test is based on the determination of the cellular growth rate. Cells are cultivated in complete medium enriched in FCS (10%) so as to obtain a population in active growth, Mitotic activity is assessed by the incorporation of a nucleotide base analog in DNA during replication: […] replaces thymidine. With a product slowing mitosis, a decrease in BrdU incorporation in cell DNA is to be expected.
Normal human keratinocytes (KHN) cultured with 10% FCS were incubated in the presence or absence of palmatine, or chelidonine at various concentrations for 48 hours.
After the first 24 hours, BrdU was added to the culture medium and the mitosis marker was allowed to act for 24 hours.
After 48 hours, the cells were lysed and the BrdU incorporation rate was determined by an ELISA method.

fibroblasts [2] = assay: Toxicity evaluation on fibroblasts, MTT (mitochondrial respiration); conditions: for MTT % Change: percent of negative controle
fibroblasts [3] = assay: Toxicity evaluation on fibroblasts, Hoescht (number of cells); conditions: for Hoescht % Change: percent of negative controle
keratinocytes [4] = assay: Toxicity evaluation on keratinocytes, MTT (mitochondrial respiration); conditions: for MTT % Change: percent of negative controle
keratinocytes [5] = assay: Toxicity evaluation on keratinocytes, Hoescht (number of cells); conditions: for Hoescht % Change: percent of negative controle
keratinocytes [6] = assay: Variation of the incorporation of BrdU, keratinocytes with palmatine or berberine; conditions: 48 hours of contact
[7] = fibroblasts, at the tested concentrations
[8] = fibroblasts, concentration 3.10^E−4%
[9] = fibroblasts, concentration 9.10^E−4%
[10] = keratinocytes, at the tested concentrations
[11] = keratinocytes, concentration 3.10^E−4%
[12] = keratinocytes, concentration 10^E−3%

COc1cc2c(cc1OC)-c1cc3ccc(OC)c(OC)c3c[n+]1CC2 [palmatine]
% incorporation of BrdU/control ([1]; concentration 3 × 10E−4%): −35%
% incorporation of BrdU/control ([1]; concentration 10E−4%): −21%
% incorporation of BrdU/control ([1]; concentration 10 × 10E−4%): −58%
effect on proliferation of keratinocytes (in words) [1]: inhibit the proliferation of keratinocytes
toxicity on fibroblasts (conclusion in words) (fibroblasts [2]; fibroblasts, MTT and Hoescht): not toxic on fibroblasts
change of the mitochondrial respiration (in words) (fibroblasts [2]; [7]): does not engender a change of the mitochondrial respiration
MTT % Change (fibroblasts [2]; [8]): 0 dns %
MTT % Change (fibroblasts [2]; [9]): −9 dns %
effect on the number of fibroblasts (in words) (fibroblasts [3]; [7]): does not act on the number of fibroblasts
Hoescht % Change (fibroblasts [3]; [8]): 1dns %
Hoescht % Change (fibroblasts [3]; [9]): −1 dns %
change of the mitochondrial respiration (in words) (keratinocytes [4]; [10]): does not engender a change of the mitochondrial respiration
MTT % Change (keratinocytes [4]; [11]): 7 dns %
MTT % Change (keratinocytes [4]; [12]): 5 dns %
toxicity on keratinocytes (conclusion in words) (keratinocytes [4]; keratinocytes, with respect to the different results): not toxic
effect on the number of keratinocytes (in words) (keratinocytes [5]; [10]): does not act on the number of keratinocytes
Hoescht % Change (keratinocytes [5]; [11]): −1 dns %
Hoescht % Change (keratinocytes [5]; [12]): −2 dns %
% Change of the incorporation of BrdU (keratinocytes [6]; concentration 3.10^E−4%): −16%**
% Change of the incorporation of BrdU (keratinocytes [6]; concentration 10^E−3%): −21%**

CN1Cc2c(ccc3c2OCO3)[C@@H]2[C@H]1c1cc3c(cc1C[C@@H]2O)OCO3 [Chelidonine, chelidonine]
% incorporation of BrdU/control ([1]; concentration 3 × 10E−4%): −41%
% incorporation of BrdU/control ([1]; concentration 10E−4%): −31%
% incorporation of BrdU/control ([1]; concentration 10 × 10E−4%): −74%
effect on proliferation of keratinocytes (in words) [1]: inhibit the proliferation of keratinocytes

COc1ccc2cc3[n+](cc2c1OC)CCc1cc2c(cc1-3)OCO2 [BERBERINE, berberine]
change of the mitochondrial respiration (in words) (fibroblasts [2]): engenders a change of the mitochondrial respiration
toxicity on fibroblasts (conclusion in words) (fibroblasts [2]): toxic effect on fibroblasts
effect on the number of fibroblasts (in words) (fibroblasts [3]): a decrease on the number of fibroblasts
change of the mitochondrial respiration (in words) (keratinocytes [4]): engenders a change of the mitochondrial respiration
toxicity on keratinocytes (conclusion in words) (keratinocytes [4]): toxic effect
effect on the number of keratinocytes (in words) (keratinocytes [5]): a decrease on the number of keratinocytes
% Change of the incorporation of BrdU (keratinocytes [6]; concentration 3.10^E−4%): −36%**
% Change of the incorporation of BrdU (keratinocytes [6]; concentration 10^E−3%): −65%**
